Assay results reported in PubChem BioAssay (NCI).
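Exposure lasted 48 hours, with cells grown in 96-well plates and compounds tested at five concentrations. TGI denotes the concentration required for complete inhibition of growth.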

Test system: TK-10 renal
Experiment: inhibition of tumour cell growth, NCI panel, 48 h

Point of comparison: Fc1ccc2c(c1)nc1n2C(c2c(Cl)cccc2Cl)SC1 (configuration not stated), TGI 31.6 µM. Against it:
- CC(=O)Nc1sc(Br)cc1S(=O)(=O)c1ccc(Cl)cc1 — higher, > 100 µM
- CC1(C)C(C#N)C1C1=C(N2CCOCC2)[C@]2(C)C(OC(=O)c3ccccc3)CC[C@@H]2C1 (some centres not stated) — higher, > 100 µM
- CN(CCSCCN(C)C(=O)OC(C)(C)C)C(=O)OC(C)(C)C — higher, > 100 µM
- N#Cc1n[nH]n(-c2ccc(Br)cc2)c1=O — higher, > 100 µM
- CO[C@@]12C[C@@H](C)C3=CCC(C)=C3CC1=C(C)C(=O)O2 — higher, > 100 µM
- N=C(N)C1CN(CCc2c[nH]c3ccccc23)C(=O)NC1=O (configuration not stated) — higher, > 100 µM
- O=c1[nH]nnc2c1sc1ncccc12 — higher, > 100 µM
- CCOC1(OCC)C2C=CC1C(COS(=O)(=O)c1ccc(C)cc1)C2COS(=O)(=O)c1ccc(C)cc1 (configuration not stated) — higher, > 100 µM
- O=C1Nc2cccc(Cl)c2/C1=C\c1c(Cl)nc2n1CCS2 — higher, > 100 µM
- CC(=O)CCn1c(=S)sc2ccccc21 — higher, > 100 µM
- CC1CC(OP(=O)(OCc2ccccc2)OCc2ccccc2)[C@@H](OCc2ccccc2)C(OCc2ccccc2)C1OCc1ccccc1 (some centres not stated) — higher, > 100 µM
- COc1cc(OC)c2nc(C)c(CCCl)c(Cl)c2c1 — higher, > 100 µM
- C[C@H]1[C@H]2[C@H]3CC[C@@H]4[C@@]5(C)CC[C@H](O)C(C)(C)[C@@H]5CC[C@@]4(C)[C@]3(C)C[C@H](O)[C@@]2(C)C[C@H]2O[C@]21C — within 1.5-fold, 41.5 µM
- Cc1c(C)c2c(c(N)c1C#N)C(=O)N(NC(=O)c1ccccc1)C2=O — higher, > 100 µM
- CC(=O)OC(OC(C)=O)c1ccc2ccc3cccc4ccc1c2c34 — within 1.5-fold, 21.4 µM
- CCOC(=O)CCC(NC(=O)Cc1ccc(Nc2nc3cc(F)c(F)cc3nc2C(=O)OCC)cc1)C(=O)OCC (configuration not stated) — higher, > 100 µM

Test system: RPMI-8226 leukemia
Experiment: inhibition of tumour cell growth, NCI panel, 48 h

Point of comparison: Fc1ccc2c(c1)nc1n2C(c2c(Cl)cccc2Cl)SC1 (configuration not stated), TGI 87.7 µM. Against it:
- CC(=O)Nc1sc(Br)cc1S(=O)(=O)c1ccc(Cl)cc1 — higher, > 100 µM
- N#Cc1n[nH]n(-c2ccc(Br)cc2)c1=O — higher, > 100 µM
- CO[C@@]12C[C@@H](C)C3=CCC(C)=C3CC1=C(C)C(=O)O2 — higher, > 100 µM
- N=C(N)C1CN(CCc2c[nH]c3ccccc23)C(=O)NC1=O (configuration not stated) — higher, > 100 µM
- O=C1Nc2cccc(Cl)c2/C1=C\c1c(Cl)nc2n1CCS2 — higher, > 100 µM
- C=CCc1cccc2cc(C(=O)NCc3ccccc3)c(=N)oc12 — higher, > 100 µM
- CC1CC(OP(=O)(OCc2ccccc2)OCc2ccccc2)[C@@H](OCc2ccccc2)C(OCc2ccccc2)C1OCc1ccccc1 (some centres not stated) — higher, > 100 µM
- COc1cc(OC)c2nc(C)c(CCCl)c(Cl)c2c1 — higher, > 100 µM
- C[C@H]1[C@H]2[C@H]3CC[C@@H]4[C@@]5(C)CC[C@H](O)C(C)(C)[C@@H]5CC[C@@]4(C)[C@]3(C)C[C@H](O)[C@@]2(C)C[C@H]2O[C@]21C — higher, > 100 µM
- N#C[C@H](c1ccccn1)c1nc2ccccc2nc1Cl — higher, > 100 µM
- Cc1c(C)c2c(c(N)c1C#N)C(=O)N(NC(=O)c1ccccc1)C2=O — higher, > 100 µM
- O=C(/C=C/c1ccccc1)CCC1C(=O)c2ccccc2C1=O — higher, > 100 µM
- CC(=O)OC(OC(C)=O)c1ccc2ccc3cccc4ccc1c2c34 — higher, > 100 µM

Test system: SK-MEL-28 melanoma
Experiment: inhibition of tumour cell growth, NCI panel, 48 h

Point of comparison: Fc1ccc2c(c1)nc1n2C(c2c(Cl)cccc2Cl)SC1 (configuration not stated), TGI 24.3 µM. Against it:
- CC(=O)Nc1sc(Br)cc1S(=O)(=O)c1ccc(Cl)cc1 — higher, > 100 µM
- CC1(C)C(C#N)C1C1=C(N2CCOCC2)[C@]2(C)C(OC(=O)c3ccccc3)CC[C@@H]2C1 (some centres not stated) — higher, > 100 µM
- CN(CCSCCN(C)C(=O)OC(C)(C)C)C(=O)OC(C)(C)C — higher, > 100 µM
- N#Cc1n[nH]n(-c2ccc(Br)cc2)c1=O — higher, > 100 µM
- CO[C@@]12C[C@@H](C)C3=CCC(C)=C3CC1=C(C)C(=O)O2 — higher, > 100 µM
- N=C(N)C1CN(CCc2c[nH]c3ccccc23)C(=O)NC1=O (configuration not stated) — higher, > 100 µM
- O=c1[nH]nnc2c1sc1ncccc12 — higher, > 100 µM
- CCOC1(OCC)C2C=CC1C(COS(=O)(=O)c1ccc(C)cc1)C2COS(=O)(=O)c1ccc(C)cc1 (configuration not stated) — higher, > 100 µM
- O=C1Nc2cccc(Cl)c2/C1=C\c1c(Cl)nc2n1CCS2 — higher, > 100 µM
- CC(=O)CCn1c(=S)sc2ccccc21 — higher, > 100 µM
- C=CCc1cccc2cc(C(=O)NCc3ccccc3)c(=N)oc12 — higher, > 100 µM
- CC1CC(OP(=O)(OCc2ccccc2)OCc2ccccc2)[C@@H](OCc2ccccc2)C(OCc2ccccc2)C1OCc1ccccc1 (some centres not stated) — higher, > 100 µM
- COc1cc(OC)c2nc(C)c(CCCl)c(Cl)c2c1 — higher, > 100 µM
- C[C@H]1[C@H]2[C@H]3CC[C@@H]4[C@@]5(C)CC[C@H](O)C(C)(C)[C@@H]5CC[C@@]4(C)[C@]3(C)C[C@H](O)[C@@]2(C)C[C@H]2O[C@]21C — 1.5-fold higher, 36.9 µM
- N#C[C@H](c1ccccn1)c1nc2ccccc2nc1Cl — higher, > 100 µM
- Cc1c(C)c2c(c(N)c1C#N)C(=O)N(NC(=O)c1ccccc1)C2=O — higher, > 100 µM
- O=C(/C=C/c1ccccc1)CCC1C(=O)c2ccccc2C1=O — higher, > 100 µM
- CCOC(=O)CCC(NC(=O)Cc1ccc(Nc2nc3cc(F)c(F)cc3nc2C(=O)OCC)cc1)C(=O)OCC (configuration not stated) — higher, > 100 µM

Test system: A549 NSCLC
Experiment: inhibition of tumour cell growth, NCI panel, 48 h

Point of comparison: C[C@H]1[C@H]2[C@H]3CC[C@@H]4[C@@]5(C)CC[C@H](O)C(C)(C)[C@@H]5CC[C@@]4(C)[C@]3(C)C[C@H](O)[C@@]2(C)C[C@H]2O[C@]21C, TGI 41.7 µM. Against it:
- CC(=O)Nc1sc(Br)cc1S(=O)(=O)c1ccc(Cl)cc1 — 2.2-fold higher, 90.5 µM
- CC1(C)C(C#N)C1C1=C(N2CCOCC2)[C@]2(C)C(OC(=O)c3ccccc3)CC[C@@H]2C1 (some centres not stated) — higher, > 100 µM
- CN(CCSCCN(C)C(=O)OC(C)(C)C)C(=O)OC(C)(C)C — higher, > 100 µM
- N#Cc1n[nH]n(-c2ccc(Br)cc2)c1=O — higher, > 100 µM
- N=C(N)C1CN(CCc2c[nH]c3ccccc23)C(=O)NC1=O (configuration not stated) — higher, > 100 µM
- O=c1[nH]nnc2c1sc1ncccc12 — higher, > 100 µM
- Fc1ccc2c(c1)nc1n2C(c2c(Cl)cccc2Cl)SC1 (configuration not stated) — within 1.5-fold, 28.2 µM
- CCOC1(OCC)C2C=CC1C(COS(=O)(=O)c1ccc(C)cc1)C2COS(=O)(=O)c1ccc(C)cc1 (configuration not stated) — higher, > 100 µM
- O=C1Nc2cccc(Cl)c2/C1=C\c1c(Cl)nc2n1CCS2 — higher, > 100 µM
- CC(=O)CCn1c(=S)sc2ccccc21 — higher, > 100 µM
- C=CCc1cccc2cc(C(=O)NCc3ccccc3)c(=N)oc12 — higher, > 100 µM
- CC1CC(OP(=O)(OCc2ccccc2)OCc2ccccc2)[C@@H](OCc2ccccc2)C(OCc2ccccc2)C1OCc1ccccc1 (some centres not stated) — higher, > 100 µM
- COc1cc(OC)c2nc(C)c(CCCl)c(Cl)c2c1 — higher, > 100 µM
- N#C[C@H](c1ccccn1)c1nc2ccccc2nc1Cl — higher, > 100 µM
- Cc1c(C)c2c(c(N)c1C#N)C(=O)N(NC(=O)c1ccccc1)C2=O — higher, > 100 µM
- O=C(/C=C/c1ccccc1)CCC1C(=O)c2ccccc2C1=O — higher, > 100 µM
- CC(=O)OC(OC(C)=O)c1ccc2ccc3cccc4ccc1c2c34 — higher, > 100 µM
- CCOC(=O)CCC(NC(=O)Cc1ccc(Nc2nc3cc(F)c(F)cc3nc2C(=O)OCC)cc1)C(=O)OCC (configuration not stated) — higher, > 100 µM

Test system: KM12 colon
Experiment: inhibition of tumour cell growth, NCI panel, 48 h

Point of comparison: Fc1ccc2c(c1)nc1n2C(c2c(Cl)cccc2Cl)SC1 (configuration not stated), TGI 25.8 µM. Against it:
- CC(=O)Nc1sc(Br)cc1S(=O)(=O)c1ccc(Cl)cc1 — 1.8-fold higher, 45.4 µM
- CC1(C)C(C#N)C1C1=C(N2CCOCC2)[C@]2(C)C(OC(=O)c3ccccc3)CC[C@@H]2C1 (some centres not stated) — higher, > 100 µM
- CN(CCSCCN(C)C(=O)OC(C)(C)C)C(=O)OC(C)(C)C — higher, > 100 µM
- N#Cc1n[nH]n(-c2ccc(Br)cc2)c1=O — higher, > 100 µM
- CO[C@@]12C[C@@H](C)C3=CCC(C)=C3CC1=C(C)C(=O)O2 — higher, > 100 µM
- O=c1[nH]nnc2c1sc1ncccc12 — higher, > 100 µM
- CCOC1(OCC)C2C=CC1C(COS(=O)(=O)c1ccc(C)cc1)C2COS(=O)(=O)c1ccc(C)cc1 (configuration not stated) — higher, > 100 µM
- O=C1Nc2cccc(Cl)c2/C1=C\c1c(Cl)nc2n1CCS2 — higher, > 100 µM
- CC(=O)CCn1c(=S)sc2ccccc21 — higher, > 100 µM
- C=CCc1cccc2cc(C(=O)NCc3ccccc3)c(=N)oc12 — higher, > 100 µM
- COc1cc(OC)c2nc(C)c(CCCl)c(Cl)c2c1 — higher, > 100 µM
- C[C@H]1[C@H]2[C@H]3CC[C@@H]4[C@@]5(C)CC[C@H](O)C(C)(C)[C@@H]5CC[C@@]4(C)[C@]3(C)C[C@H](O)[C@@]2(C)C[C@H]2O[C@]21C — 1.8-fold higher, 46.1 µM
- N#C[C@H](c1ccccn1)c1nc2ccccc2nc1Cl — higher, > 100 µM
- Cc1c(C)c2c(c(N)c1C#N)C(=O)N(NC(=O)c1ccccc1)C2=O — higher, > 100 µM
- O=C(/C=C/c1ccccc1)CCC1C(=O)c2ccccc2C1=O — higher, > 100 µM
- CC(=O)OC(OC(C)=O)c1ccc2ccc3cccc4ccc1c2c34 — higher, > 100 µM
- CCOC(=O)CCC(NC(=O)Cc1ccc(Nc2nc3cc(F)c(F)cc3nc2C(=O)OCC)cc1)C(=O)OCC (configuration not stated) — higher, > 100 µM

Test system: IGROV1 ovarian
Experiment: inhibition of tumour cell growth, NCI panel, 48 h

CC(=O)Nc1sc(Br)cc1S(=O)(=O)c1ccc(Cl)cc1 and N#Cc1n[nH]n(-c2ccc(Br)cc2)c1=O cannot be ordered by TGI: > 100 µM for the first, > 100 µM for the second.

CC1(C)C(C#N)C1C1=C(N2CCOCC2)[C@]2(C)C(OC(=O)c3ccccc3)CC[C@@H]2C1 (some centres not stated) and CO[C@@]12C[C@@H](C)C3=CCC(C)=C3CC1=C(C)C(=O)O2 cannot be ordered by TGI: > 100 µM for the first, > 100 µM for the second.

With CN(CCSCCN(C)C(=O)OC(C)(C)C)C(=O)OC(C)(C)C the TGI was > 100 µM.
